Earlier results on 63 molecules are cited in the CATMoS acute toxicity set (Mansouri et al. 2021).

Several values for one entry are separate records, joined by “and”; a condition that tells them apart may be missing. Equal entries are not always repeated.

The nature of this data set: rat acute oral toxicity. Particulars: in vivo.
For `N[C@@H](CCC(=O)O)C(=O)O`, the median lethal dose (LD50) was 14700 mg/kg.

In the case of `CCNC1C2CCC(C2)C1c1ccccc1` (stereo not drawn), the LD50 was 83 mg/kg.

For the molecule `CNC(=O)Oc1cc(C)ccc1C(C)C`, the LD50 is 500 mg/kg.

On to `C=CCC1=C(C)C(OC(=O)C2C(C=C(C)C)C2(C)C)CC1=O` (stereo not drawn), for which the LD50 is 685 mg/kg.

For `CNC(=O)Oc1cccc2c1OC(C)(C)CC2`, the LD50 is 3 mg/kg.

Consider `COc1ccc(-c2ccccc2)cc1CN1CCCC1`, for which the 50% lethal dose (LD50) was 28 mg/kg.

In the case of `CCn1cc(C(O)CN(C)C)c2ccccc21` (stereo not drawn), the 50% lethal dose (LD50) is 80 mg/kg.

As to `Nc1c(/N=N/c2ccc([N+](=O)[O-])cc2)c(S(=O)(=O)O)cc2cc(S(=O)(=O)O)c(/N=N/c3ccc(-c4ccc(/N=N/c5ccc(O)cc5)cc4)cc3)c(O)c12`, the LD50 was 14700 mg/kg.

Take `O=C(C(F)(F)Cl)C(F)(Cl)Cl`: the LD50 was 277 mg/kg.

For the molecule `CC(Oc1ccc(Oc2ccc(Cl)cc2Cl)cc1)C(=O)O` (stereo not drawn), the LD50 was 563 mg/kg.

Turning to `C=CC(=O)OCCN(C)C`, the LD50 was 455 mg/kg.

Take `Nc1ccc2ccc3cccc4ccc1c2c34`: the LD50 is 1070 mg/kg.

As for `CCCCOCCOCCCO`, the LD50 is 5160 mg/kg.

For `Cc1ncc2cscc2c1O`, the LD50 is 1500 mg/kg.

With `CC(=O)OC(c1ccc(Cl)c(Cl)c1)C(Cl)(Cl)Cl` (stereo not drawn), the LD50 is 10000 mg/kg.

Turning to `CCSN(C)C(=O)Oc1cccc2c1OC(C)(C)C2`, the LD50 is 25 mg/kg.

As to `CN1CCCCC1CCN1c2ccccc2Sc2ccc(Cl)cc21` (stereo not drawn), the LD50 was 1200 mg/kg.

Regarding `O=S(=O)(O)C(F)(F)C(F)(F)C(F)(F)C(F)(F)F`, the LD50 is 430 mg/kg.

Take `CCN(CC)CCN1C(=O)CN=C(c2ccccc2F)c2cc(Cl)ccc21`: the LD50 is 879 mg/kg and 980 mg/kg and 978 mg/kg.

For `S=C1SSC2=NCCN12`, the LD50 was 380 mg/kg.

Consider `CC(C)=CCO`, for which the LD50 was 810 mg/kg.

For `Nc1cc(Cl)c([N+](=O)[O-])cc1Cl`, the LD50 was 2820 mg/kg.

For `CN(C)C(=O)Nc1cc(C(C)(C)C)on1`, the LD50 is 630 mg/kg.

As for `CCc1cc2c(s1)N(C)C(=O)CN=C2c1ccccc1Cl`, the LD50 was 1460 mg/kg.

Take `O=c1[nH]c2c(Cl)c(Cl)c(Cl)cc2o1`: the LD50 was 1000 mg/kg.

With `CCCCC(CC)C(=O)OCCOCCOCCOC(=O)C(CC)CCCC` (stereo not drawn), the LD50 is 31000 mg/kg.

Take `C[N+]1(C)CCCCC1`: the LD50 is 270 mg/kg and 464 mg/kg.

On to `O=C1CC2(CCCC2)CC(=O)N1CCCCN1CCN(c2ncccn2)CC1`, for which the LD50 was 196 mg/kg.

Turning to `CCOP(=S)(OCC)SC=C(C)SC`, the LD50 was 2.5 mg/kg.

`CCC(CC)C(=O)OCCOCCOCCOC(=O)C(CC)CC`: the LD50 was 6000 mg/kg.

Take `O=C(Cl)CCl`: the LD50 was 208 mg/kg.

For `COc1ccc2c(c1)Sc1ccccc1N2C1CCCN(C)C1` (stereo not drawn), the LD50 was 750 mg/kg.

As to `CC(=O)N(CCN(C)C)n1cc(-c2ccccc2)c2ccccc21`, the LD50 was 1100 mg/kg.

Take `CCOC(=O)C(c1c(O)c2ccccc2oc1=O)c1c(O)c2ccccc2oc1=O`: the LD50 is 840 mg/kg.

Turning to `CCc1c(C)nc2ccc(Cl)cn2c1=O`, the median lethal dose (LD50) is 1100 mg/kg.

`N#CCc1ccc(Cl)cc1`: the LD50 is 50 mg/kg.

For `CCCCc1ccc(O)cc1O`, the LD50 was 500 mg/kg.

`O=c1[nH]nc2n1-c1cc([N+](=O)[O-])cc([N+](=O)[O-])c1OC2`: the LD50 was 3690 mg/kg.

Take `CCC(CC)C(=O)NC(=Cc1ccc(OC)cc1)C(=O)O`: the median lethal dose (LD50) was 4000 mg/kg.

Consider `COC(=O)C(c1ccccc1)C1CCCCN1` (stereo not drawn), for which the LD50 was 367 mg/kg and 350 mg/kg.

As to `CCCCC(=O)OC1CCC(N2CCCCC2)CC1` (stereo not drawn), the LD50 is 1510 mg/kg.

For the molecule `Cc1cccc(C)c1NC(=O)C1(N(C)C)CCN(C2CCCCC2O)CC1` (stereo not drawn), the LD50 was 4.83 mg/kg.

For the molecule `C=CCN(CC=C)C(=O)CCl`, the LD50 is 700 mg/kg.

As to `CC(C(=O)OCCCS(=O)(=O)O)c1ccc(-c2ccccc2)cc1` (stereo not drawn), the LD50 was 280 mg/kg.

For the molecule `CCCC(=O)OC(=O)CCC`, the LD50 is 8790 mg/kg.

Take `C=CCC1(C(C)SCCCC)C(=O)N=C(O)NC1=O` (stereo not drawn): the LD50 was 639 mg/kg.

Take `C=CN(C(C)=O)c1ccccc1`: the LD50 was 2460 mg/kg.

For the molecule `CCC(O)(c1ccccc1)c1cccc(C(F)(F)F)c1` (stereo not drawn), the LD50 is 2240 mg/kg.

As for `CC(CCl)[N+](=O)[O-]` (stereo not drawn), the LD50 is 197 mg/kg.

In the case of `CCN1C(=O)c2ccccc2C1Nc1ccc(OCCN2CCCCC2)cc1` (stereo not drawn), the LD50 was 695 mg/kg.

As to `CC(C)NCC(O)COc1ccccc1C1CCCCC1` (stereo not drawn), the LD50 is 1850 mg/kg.

Regarding `CC(C)(C)NCC(O)c1cc(Cl)c(N)c(C(F)(F)F)c1` (stereo not drawn), the LD50 was 306 mg/kg.

Regarding `CCCCOC(=O)/C=C\C(=O)OCCCC`, the LD50 was 3700 mg/kg.

`N#CCCOCCCCOCCC#N`: the LD50 is 4000 mg/kg.

For the molecule `CC#CCC(C)[C@H](O)/C=C/[C@@H]1[C@H]2c3cccc(CCCC(=O)O)c3O[C@H]2C[C@H]1O` (stereo partly drawn), the 50% lethal dose (LD50) was 12 mg/kg and 11.6 mg/kg.

Turning to `CCCCCCCC(=O)OCC`, the LD50 is 26000 mg/kg.

As to `O=S(=O)(CCCl)COCS(=O)(=O)CCCl`, the LD50 was 168 mg/kg.

For `CC(C)CCC(C)Nc1ccc(NC(C)CCC(C)C)cc1` (stereo not drawn), the LD50 was 750 mg/kg.

As to `C=COCCOCCO`, the LD50 is 4930 mg/kg.

For the molecule `OC(CN1CCCCC1)c1cc(-c2ccccc2)on1` (stereo not drawn), the LD50 was 1980 mg/kg.

Consider `C1CCC(N2CCOCC2)CC1`, for which the LD50 is 178 mg/kg.

For `COc1ccc(CC(=S)N(C)C)cc1`, the 50% lethal dose (LD50) was 22 mg/kg.

Take `CC(C)(S)[C@@H](N)C(=O)O`: the LD50 is 6170 mg/kg.
